Data as given in patent publication US10961215B2, “N-aryl and N-heteroaryl piperidine derivatives as liver X receptor beta agonists, compositions, and their use” (Merck Sharp & Dohme Corp., priority 2016, dated 2021).

Legend:
[1] = target: T1, GST tagged LXRbeta LBD (ligand binding domain) (Homo sapiens, UniProt P55055); test: LanthaScreen TR-FRET Liver X Receptor Coactivator Assay, LXR beta-LBD (co-activator recruitment; IP and % Emax relative to T0901317); assay type: biochemical; details: for EC50: Inflection Point of co-activator recruitment, LXR beta-LBD, TR-FRET; for Emax: efficacy at max dose in relation to reference T0901317, LXR beta-LBD, read-out: LXR beta actiivty at max dose (%)
T1 construct: purchased Invitrogen pv4658.pps
T1 sequence (P55055 222-460 limits assumed): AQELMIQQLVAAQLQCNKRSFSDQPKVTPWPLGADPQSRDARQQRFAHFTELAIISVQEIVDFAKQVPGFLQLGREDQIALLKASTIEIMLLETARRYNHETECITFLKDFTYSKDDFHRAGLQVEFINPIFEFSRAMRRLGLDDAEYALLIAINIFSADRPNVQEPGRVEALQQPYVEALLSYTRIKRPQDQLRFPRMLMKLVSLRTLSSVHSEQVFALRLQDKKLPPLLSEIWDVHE
Method in brief: (§1)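 TR-FRET coactivator recruitment; LBD + cpd, then fluorescein coactivator peptide/Tb anti-GST Ab mix; RT incubation; IP and Emax vs T0901317.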

[2] = target: T2, GST tagged LXRalpha LBD (ligand binding domain) (Homo sapiens, UniProt Q13133); test: LanthaScreen TR-FRET Liver X Receptor Coactivator Assay, LXR alpha-LBD (co-activator recruitment; IP and % Emax relative to T0901317); assay type: biochemical; details: for LXR alpha IP (nM) / EC50: Inflection Point of co-activator recruitment, LXR alpha-LBD, TR-FRET; for Emax: efficacy at max dose in relation to reference T0901317, LXR alpha-LBD, read-out: LXR alpha actiivty at max dose (%)
T2 construct: purchased Invitrogen pv4655
T2 sequence (Q13133 209-447 limits assumed): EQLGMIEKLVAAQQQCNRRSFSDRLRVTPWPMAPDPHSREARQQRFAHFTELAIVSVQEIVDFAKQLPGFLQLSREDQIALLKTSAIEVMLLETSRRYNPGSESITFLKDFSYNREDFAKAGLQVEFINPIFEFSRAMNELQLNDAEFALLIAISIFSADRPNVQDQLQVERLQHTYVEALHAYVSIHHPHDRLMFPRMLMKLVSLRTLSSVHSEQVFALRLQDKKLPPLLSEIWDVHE
Method in brief: as §1

Row | EC50 [1] | Emax [1] | LXR alpha IP (nM) [2] | Emax [2] | EC50 [2] | SMILES
1 | 0.11 µM | 54% | No IP | 11% |  | CN(C)C(=O)c1ccc(N2CCC(CCCN(C)C(=O)C3(c4ccccc4)CCC3)CC2)nc1Cl [Example 1-43, 2-chloro-N,N-dimethyl-6-(4-(3-(N-methyl-1-phenyl-cyclobutanecarboxamido)propyl)piperidin-1-yl)nicotinamide]
2 | 0.822 µM | 39% | No IP | 0% |  | COc1cccc(C2(C(=O)N(C)CCCC3CCN(c4ccc(C(=O)N(C)C)c(Cl)n4)CC3)CCOCC2)c1 [Example 1-44, 2-chloro-6-(4-(3-(4-(3-methoxyphenyl)-N-methyltetrahydro-2H-pyran-4-carboxamido)propyl)piperidin-1-yl)-N,N-dimethylnicotinamide]
3 | 0.045 µM | 82% |  | 32% | 2.51 µM | CN(C)C(=O)c1ccc(N2CCC(CCCN(C)C(=O)C(O)(c3cccc(O)c3)C(F)(F)F)CC2)nc1Cl (stereo not drawn) [Example 1-45, 2-chloro-N,N-dimethyl-6-(4-(3-(3,3,3-trifluoro-2-hydroxy-2-(3-hydroxyphenyl)-N-methylpropanamido)propyl)piperidin-1-yl)nicotinamide]
4 | 0.412 µM | 37% | No IP | 0% |  | COc1cccc([C@]2(C(=O)N(C)CCCC3CCN(c4ccc(C(=O)N(C)C)c(Cl)n4)CC3)CCCO2)c1 [Example 1-46, (S)-2-chloro-6-(4-(3-(2-(3-methoxyphenyl)-N-methyltetrahydrofuran-2-carboxamido)propyl)piperidin-1-yl)-N,N-dimethylnicotinamide]
5 | 0.1 µM | 56% | No IP | 11% |  | COc1cccc([C@@]2(C(=O)N(C)CCCC3CCN(c4ccc(C(=O)N(C)C)c(Cl)n4)CC3)CCCO2)c1 [Example 1-47, (R)-2-chloro-6-(4-(3-(2-(3-methoxyphenyl)-N-methyltetrahydrofuran-2-carboxamido)propyl)piperidin-1-yl)-N,N-dimethylnicotinamide]
6 | 0.333 µM | 43% | No IP | 2% |  | CN(C)C(=O)c1ccc(N2CCC(CCCN(C)C(=O)[C@@](O)(c3cccc(C(F)(F)F)c3)C(F)(F)F)CC2)nc1Cl [Example 1-48, (S)-2-chloro-N,N-dimethyl-6-(4-(3-(3,3,3-trifluoro-2-hydroxy-N-methyl-2-(3-(trifluoromethyl)phenyl)pro-panamido)propyl)piperidin-1-yl)nicotinamide]
7 | 0.054 µM | 50% | No IP | 0% |  | CN(C)C(=O)c1ccc(N2CCC(CCCN(C)C(=O)[C@](O)(c3cccc(C(F)(F)F)c3)C(F)(F)F)CC2)nc1Cl [Example 1-49, (R)-2-chloro-N,N-dimethyl-6-(4-(3-(3,3,3-trifluoro-2-hydroxy-N-methyl-2-(3-(trifluoromethyl)phenyl)pro-panamido)propyl)piperidin-1-yl)nicotinamide]
8 | 0.062 µM | 63% | No IP | 18% |  | CN(C)C(=O)c1ccc(N2CCC(CCCN(C)C(=O)[C@@](O)(c3cccc(OC(F)F)c3)C(F)(F)F)CC2)nc1Cl [Example 1-50, (S)-2-chloro-6-(4-(3-(2-(3-(difluoromethoxy)phenyl)-3,3,3-trifluoro-2-hydroxy-N-methyl-propanamido)propyl)piperidin-1-yl)-N,N-dimethylnicotinamide]
9 | 0.546 µM | 55% |  | 23% | 5.53 µM | CN(C)C(=O)c1ccc(N2CCC(CCCN(C)C(=O)[C@](O)(c3cccc(OC(F)F)c3)C(F)(F)F)CC2)nc1Cl [Example 1-51, (R)-2-chloro-6-(4-(3-(2-(3-(difluoromethoxy)phenyl)-3,3,3-trifluoro-2-hydroxy-N-methyl-propanamido)propyl)piperidin-1-yl)-N,N-dimethylnicotinamide]
